This passage reports EC50 results from BindingDB's records for doi:10.7270/Q2ZW1JC6 (Nmmlsc, 2016).

The target in this assay is Ras-related protein Rab-2A (Canis lupus familiaris, UniProt P61105). Nature of the assay: Rab2A fluorescent GTP competition potency – biochemical, pyrazoline series, Bodipy-FL-GTP, flow cytometry, multiplex, SAR follow-up (AID 2045). (A flow cytometer gives signals particle by particle.)
Chain of Ras-related protein Rab-2A (P61105 whole entry): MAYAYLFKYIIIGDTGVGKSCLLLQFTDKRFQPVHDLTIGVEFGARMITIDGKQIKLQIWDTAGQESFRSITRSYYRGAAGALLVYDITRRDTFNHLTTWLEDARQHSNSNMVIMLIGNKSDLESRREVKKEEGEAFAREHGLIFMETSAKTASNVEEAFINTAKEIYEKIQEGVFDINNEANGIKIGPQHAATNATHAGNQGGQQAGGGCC

Consider `Cc1ccccc1N1N=C(c2ccccc2)CC1c1ccc(N(C)C)cc1` (configuration not stated) [N,N-dimethyl-4-[2-(2-methylphenyl)-5-phenyl-3,4-dihydropyrazol-3-yl]aniline], for which the 50% effective concentration (EC50) is more than 30 µM.

In the case of `COc1ccc(C2CC(c3ccccc3)=NN2c2ccc(S(N)(=O)=O)cc2)cc1OC` (configuration not stated) [UNM-0000305823], the EC50 is more than 30 µM.

Molecule `COc1ccc(C2CC(c3ccc(Br)cc3)=NN2c2ccccc2Cl)cc1` (configuration not stated) [UNM-0000305832] gave a concentration giving a half-maximal response (EC50) of more than 30 µM.

On to `COc1ccc(C2=NN(c3ccccc3)C(c3ccc(Cl)cc3)C2)cc1` (configuration not stated) [UNM-0000305833], for which the EC50 was more than 30 µM.

In turn, `O=S(=O)(O)c1ccc(N2N=C(c3ccccc3)CC2c2ccccc2)cc1` (configuration not stated) [UNM-0000305834] returned an EC50 of more than 30 µM.

As for `Cc1cccc(N2N=C(c3ccccc3)CC2c2ccccc2)c1` (configuration not stated) [UNM-0000305835], the EC50 was more than 30 µM.

Regarding `O=[N+]([O-])c1ccc([N+]2=N[C-](c3ccccc3)CC2c2ccc(O)cc2)cc1` (configuration not stated) [UNM-0000305838], the EC50 is more than 30 µM.

Regarding `CN(C)c1ccc(C2CC(c3ccc(Br)cc3)=NN2c2ccccc2)cc1` (configuration not stated) [UNM-0000305846], the EC50 is more than 30 µM.

`CN(C)c1ccc(C2CC(c3ccc(Cl)cc3)=NN2c2ccccc2)cc1` (configuration not stated) [UNM-0000305847]: the 50% effective concentration (EC50) was more than 30 µM.

Molecule `COc1ccc(C2=NN(c3ccccc3)C(c3ccc(OC)c(OC)c3C(=O)O)C2)cc1` (configuration not stated) [UNM-0000305848] registered a concentration giving a half-maximal response (EC50) of more than 30 µM.

Take `Cc1ccccc1[N+]1=N[C-](c2ccccc2)CC1c1cccc([N+](=O)[O-])c1` (configuration not stated) [UNM-0000305854]: the concentration giving a half-maximal response (EC50) is more than 30 µM.

Molecule `COc1ccccc1N1N=C(c2ccccc2)CC1c1ccccc1` (configuration not stated) [UNM-0000305855] returned an EC50 of more than 30 µM.

`O=[N+]([O-])c1cccc(C2C[C-](c3ccccc3)N=[N+]2c2ccccc2)c1` (configuration not stated) [UNM-0000305857]: the EC50 was more than 30 µM.

`COc1ccc(C2CC(c3ccc(Cl)cc3)=NN2c2ccccc2)cc1OC` (configuration not stated) [UNM-0000305858] showed a 50% effective concentration (EC50) of more than 30 µM.

The molecule `FC(F)(F)c1cccc(N2N=C(c3ccc(Cl)cc3)CC2c2ccccc2Cl)c1` (configuration not stated) [UNM-0000305859] gave an EC50 of more than 30 µM.

As for `COc1ccc(C2=NN(c3ccccc3F)C(c3ccc(F)cc3)C2)cc1` (configuration not stated) [UNM-0000305860], the 50% effective concentration (EC50) is more than 30 µM.

Consider `COc1ccc(C2=NN(c3ccc(Cl)cc3)C(c3ccccc3F)C2)cc1` (configuration not stated) [UNM-0000305863], for which the EC50 was more than 30 µM.

For `COc1ccc(C2CC(c3ccc(F)cc3)=NN2c2ccccc2)cc1OC` (configuration not stated) [UNM-0000305864], the EC50 was more than 30 µM.

Molecule `CN(C)c1ccc(C2CC(c3ccc(F)cc3)=NN2c2ccccc2)cc1` (configuration not stated) [UNM-0000305866] returned a half-maximal effective concentration (EC50) of more than 30 µM.

On to `COc1ccc(C2CC(c3ccccc3)=NN2c2ccc(C(N)=O)cc2)cc1` (configuration not stated) [UNM-0000305870], for which the concentration for a half-maximal effect (EC50) was more than 30 µM.

As for `COc1ccc(C2CC(c3ccccc3)=NN2c2ccc(C(=O)O)cc2)cc1` (configuration not stated) [UNM-0000306085], the half-maximal effective concentration (EC50) was more than 30 µM.

`COc1ccc(C2CC(c3ccccc3F)=NN2c2ccc(S(N)(=O)=O)cc2)cc1` (configuration not stated) [UNM-0000306110] showed a concentration for a half-maximal effect (EC50) of more than 30 µM.

`COc1ccc(C2CC(c3ccccc3Br)=NN2c2ccc(S(N)(=O)=O)cc2)cc1` (configuration not stated) [UNM-0000306112] came in with a concentration giving a half-maximal response (EC50) of more than 30 µM.

With `COc1ccc(C2CC(c3cccc(Br)c3)=NN2c2ccc(S(N)(=O)=O)cc2)cc1` (configuration not stated) [UNM-0000306113], the half-maximal effective concentration (EC50) is more than 30 µM.

`COc1ccc(C2CC(c3cccc(Cl)c3)=NN2c2ccc(S(N)(=O)=O)cc2)cc1` (configuration not stated) [UNM-0000306134] had an EC50 of more than 30 µM.

`COc1ccc(C2CC(c3ccc(Br)cc3)=NN2c2ccc(S(N)(=O)=O)cc2)cc1` (configuration not stated) [UNM-0000306138]: the EC50 was more than 30 µM.

`NS(=O)(=O)c1ccc(N2N=C(c3ccccc3)CC2c2cccc(Br)c2)cc1` (configuration not stated) [UNM-0000306147] came in with an EC50 of more than 30 µM.

In turn, `Cc1ccccc1C1CC(c2ccccc2)=NN1c1ccc(S(N)(=O)=O)cc1` (configuration not stated) [UNM-0000306148] came in with an EC50 of more than 30 µM.

Turning to `COc1ccc(C2CC(c3ccccc3C)=NN2c2ccc(S(N)(=O)=O)cc2)cc1` (configuration not stated) [UNM-0000306152], the EC50 is more than 30 µM.

For `COc1ccc(C2CC(c3cccc(C)c3)=NN2c2ccc(S(N)(=O)=O)cc2)cc1` (configuration not stated) [UNM-0000306153], the 50% effective concentration (EC50) is more than 30 µM.

In the case of `NS(=O)(=O)c1ccc(N2N=C(c3ccccc3)CC2c2ccc(Br)cc2)cc1` (configuration not stated) [UNM-0000306160], the EC50 was more than 30 µM.

Regarding `NS(=O)(=O)c1ccc(N2N=C(c3ccccc3)CC2c2cccc(Cl)c2)cc1` (configuration not stated) [UNM-0000306161], the EC50 was more than 30 µM.

Broadly, the EC50 is the concentration that produces a half-maximal response. The low end stands for a more potent agent, the high end for a less potent agent.
